The values that follow come from US5461067A, “Retroviral protease inhibiting compounds” (priority 1994, dated 1995).

What is called IC50 is the concentration needed to halve the response being measured. Lower therefore signals greater potency. Broadly, the inhibition is the change of the read-out against control, counted positive when it falls.

In one series the test system is HIV-13B in MT4 cells. The series can be described thus: Anti-HIV activity (inhibition of cytopathic effect of HIV) in MT4 cells. The conditions noted are these: Human immunodeficiency virus 1, concentration giving 50% inhibition of cytopathic effect of HIV. In kind it is cell-based. From the text: (§1) The IC50 is the concentration of compound that gives 50% inhibition of the cytopathic effect of HIV. The LC50 is the concentration of compound at which 50% of the cells remain viable.
(In general: Cytopathic effects are the visible damage that an infection or toxin causes in cultured cells.)

Series [1] in a line: Cytotoxicity in MT4 cells. In kind it is cell-based. The conditions noted are these: human, concentration at which 50% of the cells remain viable, read-out: LC50 (the source's name).
From the text: as §1

The next series addresses HIV-1 protease (Human immunodeficiency virus type 1 group M subtype B, UniProt P04585). The series can be described thus: Fluorogenic assay for screening inhibitors of HIV protease.
The mark [2] stands for this setting: pH 4.5, read-out: Percent Inhibition.

Protocol for HIV-1 protease: The inhibitory potency of the compounds of the invention can be determined by the following method.
A compound of the invention is dissolved in DMSO and a small aliquot further diluted with DMSO to 100 times the final concentration desired for testing. The reaction is carried out in a 6×50 mm tube in a total volume of 300 microliters. The final concentrations of the components in the reaction buffer are: 125 mM sodium acetate, 1M sodium chloride, 5 mM dithiothreitol, 0.5 mg/ml bovine serum albumin, 1.3 μM fluorogenic substrate, 2% (v/v) dimethylsulfoxide, pH 4.5. After addition of inhibitor, the reaction mixture is placed in the fluorometer cell holder and incubated at 30° C. for several minutes. The reaction is initiated by the addition of a small aliquot of cold HIV protease. The fluorescence intensity (excitation 340 nm, emmision 490 nM) is recorded as a function of time. The reaction rate is determined for the first six to eight minutes. The observed rate is directly proportional to the moles of substrate cleaved per unit time. The percent inhibition is 100×(1-(rate in presence of inhibitor)/(rate in absence of inhibitor)).

Regarding `CCc1cccc(CN(C)C(=O)N[C@H](C(=O)NN(Cc2ccccc2)C[C@H](O)[C@H](Cc2ccccc2)NC(=O)OCc2ccccc2)C(C)C)n1` [Example 10, 5S-(Benzyloxycarbonyl)amino-2-N-((N-methyl-N-((6-ethyl-2-pyridinyl)methyl)amino)carbonyl)-L-valinylamino-4S-hydroxy-1,6-diphenyl-2-azahexane], the IC50 in the series with HIV-13B in MT4 cells was 0.83 to 1.1 µM; against HIV-1 protease, 0.0005 µM. Moreover, in series [1], the CC50 was found to be 19 µM. In addition, the inhibition at 0.0005 µM on HIV-1 protease (setting [2]) turned out to be 50%.
As to `CC(C)(C)OC(=O)NN(Cc1ccccc1)C[C@H](O)[C@H](Cc1ccccc1)NC(=O)OCc1cncs1` [Example 7F, 5S-(((5-Thiazolyl)methoxy)carbonyl)amino-2-(t-butyloxycarbonyl)amino-4S-hydroxy-1,6-diphenyl-2-azahexane], the IC50 is 6.5 to 18.2 µM with HIV-13B in MT4 cells and 0.0044 µM on HIV-1 protease. Further, the CC50 in series [1] was found to be 44 µM. Besides, the inhibition at 0.0044 µM at HIV-1 protease (setting [2]) turned out to be 50%.
In the case of `CC(C)[C@H](NC(=O)OCc1ccccn1)C(=O)N[C@@H](Cc1ccccc1)[C@@H](O)CN(Cc1ccccc1)NC(=O)OCc1cccnc1` [Example 5B, 5S-N-((2-Pyridinyl)methoxycarbonyl)valinylamino-2-((N-3-pyridinyl)methoxycarbonyl)amino-4S-hydroxy-1,6-diphenyl-2-azahexane], the IC50 in the series on HIV-13B in MT4 cells lay in the range of 0.15 to 0.26 µM. Also, the CC50 in series [1] is > 100 µM. Also, at HIV-1 protease (setting [2]), the inhibition at 0.0005 µM was 60%.
For `CC(C)c1nc(CN(C)C(=O)N[C@H](C(=O)NN(Cc2ccccc2)C[C@H](O)[C@H](Cc2ccccc2)NC(=O)OCc2ccno2)C(C)C)co1` [Example 13D, 5S-N-((5-Isoxazolyl)methoxy)carbonylamino-2-N-((N-methyl-N-((2-isopropyl-4-oxazolyl)methyl)amino)carbonyl)-L-valinylamino-4S, hydroxy-1,6-diphenyl-2-azahexane] the same measures were 0.102 to 0.15 µM, 58 µM and 71%.
For `CC(C)c1nc(CN(C)C(=O)N[C@H](C(=O)NN(Cc2ccccc2)C[C@H](O)[C@H](Cc2ccccc2)NC(=O)OCc2cncs2)C(C)C)cs1` [Example 8, 5S-(((5-Thiazolyl)methoxy)carbonyl)amino-2-N-((N-methyl-N-((2-isopropyl-4-thiazolyl)methyl)amino)carbonyl)-L-valinylamino-4S-hydroxy-1,6-diphenyl-2-azahexane] the same measures were 0.1 to 0.11 µM, 17 µM and 77%.
